From PubChem BioAssay (NCI)
“And” between values parts separate entries of the source, which are not always exact repeats. Equal values may be shown once.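 Growth conditions: 96-well plates. Treatment: test compound, 48 hours, 5 concentrations. Analysis: linear interpolation between bracketing concentrations; unreached endpoints set to highest concentration. GI50 = concentration required for 50% inhibition of growth. TGI marks complete inhibition of growth.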

Key:
Assay in all cases: NCI-60 cell line screen, 48 h
DMS 273 small cell lung = tested on: DMS 273 small cell lung
HCT-15 colon = tested on: HCT-15 colon
M14 melanoma = tested on: M14 melanoma
M19-MEL melanoma = tested on: M19-MEL melanoma
OVCAR-8 ovarian = tested on: OVCAR-8 ovarian
RXF 393 renal = tested on: RXF 393 renal
SF-295 CNS = tested on: SF-295 CNS
SK-MEL-2 melanoma = tested on: SK-MEL-2 melanoma
UACC-62 melanoma = tested on: UACC-62 melanoma
K-562 leukemia = tested on: K-562 leukemia

c1cc[c]([Sn]([S]c2cccc3cccnc23)([S]c2cccc3cccnc23)[c]2ccccc2)cc1
GI50 (DMS 273 small cell lung): 0.293 µM
TGI (DMS 273 small cell lung): 0.955 µM
GI50 (HCT-15 colon): 0.153 µM
TGI (HCT-15 colon): 0.446 µM
GI50 (M14 melanoma): 0.188 µM
TGI (M14 melanoma): 0.393 µM
GI50 (M19-MEL melanoma): 0.216 µM
TGI (M19-MEL melanoma): 0.542 µM
GI50 (OVCAR-8 ovarian): 0.25 µM
TGI (OVCAR-8 ovarian): 0.895 µM
GI50 (RXF 393 renal): 0.109 µM
TGI (RXF 393 renal): 0.23 µM
GI50 (SF-295 CNS): 0.353 µM
TGI (SF-295 CNS): 1.4 µM
GI50 (SK-MEL-2 melanoma): 0.16 µM
TGI (SK-MEL-2 melanoma): 0.538 µM
GI50 (UACC-62 melanoma): 0.186 µM
TGI (UACC-62 melanoma): 0.43 µM

CN1CCN(CCNc2ccc(CO)c3sc4ccccc4c(=O)c23)CC1
TGI (DMS 273 small cell lung): 14.1 µM
TGI (HCT-15 colon): 18 µM
TGI (K-562 leukemia): 14.7 µM
TGI (M14 melanoma): 12 µM
TGI (M19-MEL melanoma): 25.7 µM
TGI (OVCAR-8 ovarian): 23.5 µM
GI50 (RXF 393 renal): 0.0726 µM
TGI (RXF 393 renal): 1.82 µM
TGI (SF-295 CNS): 17.5 µM
TGI (SK-MEL-2 melanoma): 20.9 µM
TGI (UACC-62 melanoma): 9.93 µM

c1cc(-c2cn[nH]c2)cc(-c2cn[nH]c2)c1
TGI (DMS 273 small cell lung): > 100 µM
TGI (HCT-15 colon): 96.4 µM
TGI (K-562 leukemia): > 100 µM
TGI (M14 melanoma): > 100 µM
TGI (M19-MEL melanoma): > 100 µM
TGI (OVCAR-8 ovarian): > 100 µM
TGI (RXF 393 renal): 36.8 µM
TGI (SF-295 CNS): > 100 µM
TGI (SK-MEL-2 melanoma): > 100 µM
TGI (UACC-62 melanoma): 35.6 µM

BrC1=CC=C2NCCCCCCN=C3C=CC(Br)=CC=C3NCCCCCCN=C2C=C1
TGI (DMS 273 small cell lung): > 25.5 µM
TGI (HCT-15 colon): > 25.5 µM
TGI (K-562 leukemia): > 25.5 µM
TGI (M14 melanoma): > 25.5 µM
TGI (M19-MEL melanoma): > 25.5 µM
TGI (OVCAR-8 ovarian): > 25.5 µM
TGI (RXF 393 renal): > 25.5 µM
TGI (SF-295 CNS): > 25.5 µM
TGI (SK-MEL-2 melanoma): > 25.5 µM
TGI (UACC-62 melanoma): > 25.5 µM

CC1CCP(=O)(c2ccccc2)CC1 (stereo not drawn)
TGI (DMS 273 small cell lung): > 100 µM
TGI (HCT-15 colon): > 100 µM
TGI (K-562 leukemia): > 100 µM
TGI (M14 melanoma): > 100 µM
TGI (M19-MEL melanoma): > 100 µM
TGI (OVCAR-8 ovarian): > 100 µM
TGI (RXF 393 renal): > 100 µM
TGI (SF-295 CNS): > 100 µM
TGI (SK-MEL-2 melanoma): > 100 µM
TGI (UACC-62 melanoma): > 100 µM

O=C1C(=O)c2ccccc2C(O)=C1CC=C(Cl)Cl
TGI (DMS 273 small cell lung): 75.8 µM
GI50 (HCT-15 colon): 0.424 µM
TGI (HCT-15 colon): 51.7 µM and 159 µM and > 100 µM
GI50 (K-562 leukemia): 0.987 µM and 3.19 µM
TGI (K-562 leukemia): > 41.5 µM and 175 µM and > 100 µM
GI50 (M14 melanoma): 29.4 µM and 9.94 µM
TGI (M14 melanoma): > 90.7 µM and 108 µM and > 100 µM
GI50 (M19-MEL melanoma): 9.49 µM
TGI (M19-MEL melanoma): 25.9 µM and 93.8 µM
GI50 (OVCAR-8 ovarian): 6.49 µM and 4.81 µM
TGI (OVCAR-8 ovarian): 206 µM and > 100 µM
GI50 (RXF 393 renal): 13.8 µM and 13.7 µM
TGI (RXF 393 renal): 76.9 µM and 203 µM and 97.9 µM
GI50 (SF-295 CNS): 9.87 µM and 7.86 µM
TGI (SF-295 CNS): 75.5 µM and 137 µM
GI50 (SK-MEL-2 melanoma): 22.1 µM
TGI (SK-MEL-2 melanoma): 44.3 µM and 47.1 µM and 63.9 µM
GI50 (UACC-62 melanoma): 6.1 µM and 8.42 µM
TGI (UACC-62 melanoma): 40 µM and 81.7 µM and > 100 µM

C#C[C@H](CCCC)OC(=O)N[C@H](C)c1ccccc1
TGI (DMS 273 small cell lung): > 100 µM
TGI (K-562 leukemia): > 100 µM
TGI (M14 melanoma): > 100 µM
TGI (M19-MEL melanoma): 93.8 µM
TGI (OVCAR-8 ovarian): > 100 µM
TGI (RXF 393 renal): 92.4 µM
TGI (SF-295 CNS): > 100 µM
TGI (SK-MEL-2 melanoma): 68.4 µM
TGI (UACC-62 melanoma): > 100 µM

O=C(O)/C(=C\c1ccccc1Cl)S(=O)(=O)c1ccccc1
TGI (DMS 273 small cell lung): > 100 µM
TGI (HCT-15 colon): > 100 µM
TGI (K-562 leukemia): > 100 µM
TGI (M14 melanoma): > 100 µM
TGI (M19-MEL melanoma): > 100 µM
TGI (OVCAR-8 ovarian): > 100 µM
TGI (RXF 393 renal): > 100 µM
TGI (SF-295 CNS): > 100 µM
TGI (SK-MEL-2 melanoma): > 100 µM
TGI (UACC-62 melanoma): > 100 µM

N[C@@H]1CCCC[C@@H]1N.O=C([O-])CN(CP(=O)([O-])[O-])CP(=O)([O-])[O-].[Pt+2]
GI50 (DMS 273 small cell lung): > 100 µM
TGI (DMS 273 small cell lung): > 100 µM
GI50 (HCT-15 colon): > 100 µM
TGI (HCT-15 colon): > 100 µM
GI50 (K-562 leukemia): > 100 µM
TGI (K-562 leukemia): > 100 µM
GI50 (M14 melanoma): > 100 µM
TGI (M14 melanoma): > 100 µM
GI50 (M19-MEL melanoma): > 100 µM
TGI (M19-MEL melanoma): > 100 µM
GI50 (OVCAR-8 ovarian): > 100 µM
TGI (OVCAR-8 ovarian): > 100 µM
GI50 (SF-295 CNS): > 100 µM
TGI (SF-295 CNS): > 100 µM
GI50 (SK-MEL-2 melanoma): > 100 µM
TGI (SK-MEL-2 melanoma): > 100 µM
GI50 (UACC-62 melanoma): > 100 µM
TGI (UACC-62 melanoma): > 100 µM

COc1cc2c([C@@H](OC(=O)c3ccccc3)c3ccc4c(c3)OCO4)nccc2c(OC)c1OC
TGI (DMS 273 small cell lung): > 100 µM
TGI (HCT-15 colon): > 100 µM
TGI (K-562 leukemia): > 100 µM
TGI (M14 melanoma): > 100 µM
TGI (M19-MEL melanoma): > 100 µM
TGI (OVCAR-8 ovarian): > 100 µM
TGI (RXF 393 renal): 85.3 µM
TGI (SF-295 CNS): > 100 µM
TGI (UACC-62 melanoma): > 100 µM

Cc1[nH]nc2c1C(=O)C=C(N(CCO)c1ccccc1)C2=O
TGI (DMS 273 small cell lung): > 100 µM
TGI (HCT-15 colon): > 100 µM
TGI (K-562 leukemia): > 100 µM
TGI (M14 melanoma): > 100 µM
TGI (M19-MEL melanoma): > 100 µM
TGI (OVCAR-8 ovarian): > 100 µM
TGI (RXF 393 renal): > 100 µM
TGI (SF-295 CNS): > 100 µM
TGI (UACC-62 melanoma): > 100 µM

CCCCCC(O)(CCCCC)CCCCCCCCC1=C(O)c2[nH]c(=O)ccc2C(=O)C1=O
TGI (DMS 273 small cell lung): 12.6 µM
TGI (HCT-15 colon): 16.3 µM
TGI (K-562 leukemia): 26.7 µM
TGI (M14 melanoma): 21.6 µM
TGI (M19-MEL melanoma): 13.8 µM
TGI (OVCAR-8 ovarian): 23.1 µM
TGI (RXF 393 renal): 21.4 µM
TGI (SF-295 CNS): 16.4 µM
TGI (SK-MEL-2 melanoma): 13.9 µM
TGI (UACC-62 melanoma): 10.9 µM
